Laboratory results as given in ChEMBL document CHEMBL1123745, “Preparation and biological evaluation of a potential photoaffinity label for the prostaglandin H2/thromboxane A2 receptor” (J Med Chem, 1987).

Legend:
[1] = target: T1, Thromboxane A2 receptor (Homo sapiens) (UniProt P21731); assay: Ability to inhibit the U-46,619 (TXA2 agonist,3uM) induced aggregation in human platelets; range (5-20 uM); type: functional
T1 sequence (whole entry): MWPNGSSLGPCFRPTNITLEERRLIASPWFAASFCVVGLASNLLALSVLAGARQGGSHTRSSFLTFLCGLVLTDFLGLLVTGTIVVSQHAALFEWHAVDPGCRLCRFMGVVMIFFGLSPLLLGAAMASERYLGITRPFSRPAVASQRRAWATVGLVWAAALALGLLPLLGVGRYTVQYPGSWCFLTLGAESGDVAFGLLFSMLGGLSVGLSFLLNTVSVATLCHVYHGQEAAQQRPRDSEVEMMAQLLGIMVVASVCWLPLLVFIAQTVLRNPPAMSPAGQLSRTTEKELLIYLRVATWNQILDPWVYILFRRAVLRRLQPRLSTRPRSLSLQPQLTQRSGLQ

[2] = Ability to inhibit ADP (10 uM) induced aggregation in human platelet rich plasma (PRP) relative to 13-azaprostanoic acid; type: functional
[3] = Ability to inhibit U-46,619 (0.5 uM) induced aggregation in human platelet rich plasma (PRP) relative to 13-azaprostanoic acid; type: functional
[4] = species on record: Homo sapiens; assay: Inhibition of [3H]U-46619 binding in dark incubated platelets; type: functional
[5] = target: T1, Thromboxane A2 receptor (Homo sapiens); assay: Ability to inhibit the U-46,619 (TXA2 agonist, 3 uM); type: functional
[6] = target: T1, Thromboxane A2 receptor (Homo sapiens); assay: Ability to inhibit the U-46,619 (TXA2 agonist,3 uM) induced aggregation in human platelets was determined; type: functional
[7] = target: T1, Thromboxane A2 receptor (Homo sapiens); assay: Inhibition of UV-irridiated platelets relative to dark incubated platelets after irreversible inhibition of U-46,619 binding after photoactivation (p<0.02); conditions: concentration not given here

| Compound | ED50 [1] [µM] | other results |
| --- | --- | --- |
| O=C(O)CCCCCCC1CCCC1NCCCc1ccc([N+](=O)[O-])cc1 (cis isomer) | 20 |  |
| [N-]=[N+]=Nc1ccc(CCCNC2CCCC2CCCCCCC(=O)O)cc1 (cis isomer) | 20 |  |
| [N-]=[N+]=Nc1ccc(OCCCNC2CCCC2CCCCCCC(=O)O)cc1 (trans isomer) | 20 | Inhibition [2]: 50%; Inhibition [3]: 38% |
| [N-]=[N+]=Nc1ccc(CCCNC2CCCC2CCCCCCC(=O)O)cc1 (trans isomer) [listing 1 of 2 here] |  | Inhibition [2]: 19%; Inhibition [3]: 63% |
| [N-]=[N+]=Nc1ccc(CCCNC2CCCC2CCCCCCC(=O)O)cc1[127I] (trans isomer) |  | Inhibition [2]: 15%; Ki [4]: 0.29 µM; Inhibition [3]: 81% |
| O=C(O)CCCCCCC1CCCC1NCCCOc1ccccc1 (trans isomer) |  | ED50 [5]: 20 µM |
| O=C(O)CCCCCCC1CCCC1NCCCc1ccc([N+](=O)[O-])cc1 (trans isomer) | 20 |  |
| [N-]=[N+]=Nc1ccc(CCCNC2CCCC2CCCCCCC(=O)O)cc1 (trans isomer) [listing 2 of 2 here] | 20 |  |
| [N-]=[N+]=Nc1ccc(CCCNC2CCCC2CCCCCCC(=O)O)cc1I (trans isomer) |  | ED50 [6]: 2 µM; inhibition [7]: 38% |

Second part, led by results:

| ED50 [1] [µM] | Compound | other results |
| --- | --- | --- |
| 20 | O=C(O)CCCCCCC1CCCC1NCCCOc1ccccc1 (stereo not given) |  |
| 20 | O=C(O)CCCCCCC1CCCC1NCCCOc1ccc([N+](=O)[O-])cc1 (stereo in doubt) |  |
| 20 | Nc1ccc(CCCNC2CCCC2CCCCCCC(=O)O)cc1 (trans isomer) |  |
| 20 | Nc1ccc(OCCCNC2CCCC2CCCCCCC(=O)O)cc1 (trans isomer) |  |
| 20 | O=C(O)CCCCCCC1CCCC1NCCCOc1ccc([N+](=O)[O-])cc1 (trans isomer) |  |
